Measured values published in patent publication EP1574201B1, “Composition comprising benzyloxyethanol as preservative” (KAO CORPORATION, priority 2004, dated 2005).

How the values were obtained:
[1] = tested on: Staphylococcus aureus IFO 13276, Escherichia coli IFO 3972, and Pseudomonas aeruginosa IFO 13275; assay: Preservative efficacy test (reduction in count of viable bacteria); assay type: cell-based; conditions: BOE and methyl paraben in combination versus each alone
Description: Preservative efficacy test was performed at 30°C by use of the bacteria written below and a sample (50 g) having a composition shown in the below-described Table 2, and the preservative efficacy was evaluated on the reduction in count of viable bacteria. The following test microorganisms are challenged: Staphylococcus aureus IFO 13276, Escherichia coli IFO 3972, and Pseudomonas aeruginosa IFO 13275.

[2] = guinea pig, in vivo
Description: Guinea pig maximization test was performed. Specifically, groups of guinea pigs, each group consisting of 10 guinea pigs, were employed, and each animal was given interedermal injection of.0.3(W/V)% benzyloxyethanol and 30(W/V)% benzyloxyethanol was applied occlusive patch. Subsequently, challenge was performed at a concentration of benzyloxyethanol at which no irritation occurs.

[3] = tested on: Cladosporium cladosporoides IFO 6348; assay: MIC by agar plate method; assay type: cell-based; conditions: GP agar medium
Description: (§1) The minimum inhibitory concentration (MIC) of benzyloxyethanol against bacteria and fungi was determined by means of the agar plate method. There were employed the following microbial strains: Staphylococcus aureus IFO 13276, Escherichia coli IFO 3972, Pseudomonas aeruginosa IFO 13275, and Alcaligenes faecalis IFO 13111, and the following fungal strains: Penicillium citrinum IFO 6352 , Cladosporium cladosporoides IFO 6348 and Aspergillus niger IFO 6341. The media used in the test […] agar medium (product of Wako Pure Chemical Industries, Ltd.) for the bacteria, and GP agar medium (product of Wako Pure Chemical Industries, Ltd.) for the fungi, to which various concentration of benzyloxyethanol was added.

[4] = tested on: Aspergillus niger IFO 6341; assay: MIC by agar plate method; assay type: cell-based; conditions: GP agar medium
Description: as §1

[5] = tested on: Penicillium citrinum IFO 6352; assay: MIC by agar plate method; assay type: cell-based; conditions: GP agar medium
Description: as §1

[6] = tested on: Pseudomonas aeruginosa IFO 13275; assay: MIC by agar plate method; assay type: cell-based; conditions: SCD agar medium
Description: as §1

[7] = tested on: Escherichia coli IFO 3972; assay: MIC by agar plate method; assay type: cell-based; conditions: SCD agar medium
Description: as §1

[8] = tested on: Staphylococcus aureus IFO 13276; assay: MIC by agar plate method; assay type: cell-based; conditions: SCD agar medium
Description: as §1

[9] = tested on: Alcaligenes faecalis IFO 13111; assay: MIC by agar plate method; assay type: cell-based; conditions: SCD agar medium
Description: as §1

Row | SMILES | available amounts for the required reduction were reduced by [1] | positive rate [2] | MIC (%) [3] | MIC (%) [4] | MIC (%) [5] | MIC (%) [6] | MIC (%) [7] | MIC (%) [8] | MIC (%) [9]
1 | COC(=O)c1ccc(O)cc1 [methyl paraben, reference compound] | 75% |  |  |  |  |  |  |  | 
2 | OCCOCc1ccccc1 [benzyloxyethanol] | 40% | 0% | 0.2% | 0.8% | 0.8% | 1.0% | 0.8% | 1.4% | 0.8%
